The values below come from patent publication US20140357726A1, “USE OF PEGYLATED ALCOHOLS FOR THE TREATMENT OF ACTINIC KERATOSIS” (MERZ PHARMA GmbH & CO. KGaA, priority 2011, published 2014).

This experiment concerns NHEK-cells. As to the kind of experiment: Resazurin viability assay on primary normal human epidermal keratinocytes (cytolytic potential). The experiment is classed as cell-based. Particulars: metabolic activity as read-out (Resazurin-assay); eight concentrations up to 1 mM. The protocol: By using primary, normal human epidermal keratinocytes (NHEK, FIG. 1) the cytolytic potential of the drug compound was investigated.
The viability of the cells was monitored by their metabolic activity using the Resazurin-assay. Eight different concentrations (up to 1 mM) of polidocanol were investigated. Viability of the cells was plotted against the different concentration of test compound.
From the resulting sigmoid-curve the IC50 value for the cytolytic effect was determined and given in the respective figure. FIG. 1 depicts the relative viability of NHEK-cells vs. the concentration of test-compound using metabolic activity as read-out.

For Polidocanol, the “relative viability of NHEK-cells vs. the concentration of test-compound” value is given as “clear negative-impact”.
